Results taken from patent publication US8846745B2, “Use of an indazolemethoxyalkanoic acid for reducing triglyceride, cholesterol and glucose levels” (Aziende Chimiche Riunite Angelini Francesco A.C.R.A.F. …, priority 2006, dated 2014).

Experiments:
[1] = tested on: obese Zucker rats (fa/fa); conditions: standard rodent diet supplemented with 0.5% bindarit, blood at 6, 16, 28 and 40 weeks old
Description: The activity of bindarit was tested in an experimental model in rats.
The study was performed on rats 5 weeks old on arrival, of the Zucker strain homozygous for the “fa” allele (fa/fa), insulin-resistant, hyperinsulinaemic and obese, and on rats of the same age of the heterozygous Zucker control strain (fa/+), phenotypically normal, insulin-sensitive and slim.
At six weeks old, the obese Zucker rats were divided into two groups, one of which was fed with a standard rodent diet, and the other with a standard rodent diet supplemented with 0.5% bindarit.
The slim Zucker rats of the same age were used as controls and fed with a standard rodent diet.
Blood samples were taken from the animals periodically (at 6, 16, 28 and 40 weeks old) for enzymatic measurement of the circulating levels of triglycerides, cholesterol and glucose.

IL-12 = conditions: human monocytes, LPS 100 ng/ml for 4 hours, bindarit 300 μM tested as sodium salt
Description: The capacity of bindarit to inhibit the expression of IL-12 by human monocytes stimulated with lipopolysaccharide (LPS) was evaluated.
Human monocytes were used, which were isolated from healthy donors by centrifugation on a Ficoll gradient and purified by two successive centrifugation steps, followed by a step of isolation by means of an immunomagnetic system of negative cell separation (MACS, Miltenyi Biotech), using specific antibodies.
The cells were stimulated with LPS (100 ng/ml) for 4 hours in the presence or absence of bindarit (300 μM). The product was tested in the form of the sodium salt obtained by salification with equimolar sodium hydroxide and subsequent dilution in the medium used. The total RNA was extracted from cells using TRizol (Invitrogen Life Technologies) according to manufacturer's instructions, reverse-transcribed and prepared by GeneChip hybridization.

## CC(C)(OCc1nn(Cc2ccccc2)c2ccccc12)C(=O)O [bindarit]
[1]
  circulating levels of cholesterol: significant reduction
  circulating levels of triglycerides: significant reduction
  glycaemia (circulating glucose): significant reduction
IL-12
  reduction of the levels of LPS-induced IL-12 specific mRNA: about 100 fold
